Measured values: patent publication US9809623B2, “α4β7 peptide monomer and dimer antagonists” (Protagonist Therapeutics, Inc., priority 2014, dated 2017)
Where two headings read alike, the source gives them in different places. Numbered stars: 1 amine (or outer) side, 2 acyl side, 3 side chain; on linkers, the order of the positions; unused ones are H or OH. Bridge positions count the residues as written; N and C are the ends. Square brackets hold non-standard residues; d marks the D form. Peptide text beside a SMILES is read from it. I, II: the chains in the order shown. X2 = O=C(CCOCCOCCOCCOCCOCCOCCOCCOCCOCCOCCOCCOCCOCCOCCOCCOCCOCCOCCOCCOCCOCCOCCOCCOCCOCCC(=O)[*:2])[*:1]; Phe(4-tBu) = CC(C)(C)c1ccc(C[C@H](N)C(=O)O)cc1; 2Nal = N[C@@H](Cc1ccc2ccccc2c1)C(=O)O; Diglycolyl = O=C(COCC(=O)[*:2])[*:1]; NMeR = CN[C@@H](CCCNC(=N)N)C(=O)O; β3hE = N[C@@H](CCC(=O)O)CC(=O)O; Pen = CC(C)(S)[C@H](N)C(=O)O; dNMeK = CN[C@H](CCCCN)C(=O)O

What was measured:
α4β1 = α4β1 (Homo sapiens, UniProt P05556+P13612); experiment: α4β1-VCAM Cell Adhesion Assay (Jurkat E6.1 human cells); format: cell-based; design: host or cells: Jurkat E6.1 human T cells
α4β1, sequence (P13612 34-1032): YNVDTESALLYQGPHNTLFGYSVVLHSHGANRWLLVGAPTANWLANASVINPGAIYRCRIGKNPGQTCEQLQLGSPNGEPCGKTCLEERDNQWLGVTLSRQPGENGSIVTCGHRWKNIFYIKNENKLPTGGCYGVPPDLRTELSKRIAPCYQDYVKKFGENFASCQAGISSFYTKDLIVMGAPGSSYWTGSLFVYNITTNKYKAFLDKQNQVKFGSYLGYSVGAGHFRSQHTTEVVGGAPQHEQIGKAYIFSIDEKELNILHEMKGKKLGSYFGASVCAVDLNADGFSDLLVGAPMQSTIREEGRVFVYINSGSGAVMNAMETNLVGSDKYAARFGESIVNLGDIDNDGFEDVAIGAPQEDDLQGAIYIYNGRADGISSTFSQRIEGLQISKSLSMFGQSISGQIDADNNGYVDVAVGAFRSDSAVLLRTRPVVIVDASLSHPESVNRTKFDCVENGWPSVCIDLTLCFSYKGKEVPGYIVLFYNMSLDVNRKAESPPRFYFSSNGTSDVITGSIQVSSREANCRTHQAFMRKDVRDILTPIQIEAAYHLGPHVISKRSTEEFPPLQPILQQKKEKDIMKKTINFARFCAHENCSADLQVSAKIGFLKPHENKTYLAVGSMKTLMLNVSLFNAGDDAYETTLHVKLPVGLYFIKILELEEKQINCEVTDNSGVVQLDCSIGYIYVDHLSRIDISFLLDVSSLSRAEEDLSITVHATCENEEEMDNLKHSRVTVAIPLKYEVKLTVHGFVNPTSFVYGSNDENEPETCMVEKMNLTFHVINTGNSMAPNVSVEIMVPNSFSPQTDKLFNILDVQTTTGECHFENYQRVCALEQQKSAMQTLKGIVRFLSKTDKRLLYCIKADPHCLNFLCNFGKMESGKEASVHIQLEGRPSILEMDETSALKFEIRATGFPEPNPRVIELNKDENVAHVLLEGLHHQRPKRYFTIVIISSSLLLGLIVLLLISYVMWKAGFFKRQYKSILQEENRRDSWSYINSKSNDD
α4β1, sequence (P05556 21-798): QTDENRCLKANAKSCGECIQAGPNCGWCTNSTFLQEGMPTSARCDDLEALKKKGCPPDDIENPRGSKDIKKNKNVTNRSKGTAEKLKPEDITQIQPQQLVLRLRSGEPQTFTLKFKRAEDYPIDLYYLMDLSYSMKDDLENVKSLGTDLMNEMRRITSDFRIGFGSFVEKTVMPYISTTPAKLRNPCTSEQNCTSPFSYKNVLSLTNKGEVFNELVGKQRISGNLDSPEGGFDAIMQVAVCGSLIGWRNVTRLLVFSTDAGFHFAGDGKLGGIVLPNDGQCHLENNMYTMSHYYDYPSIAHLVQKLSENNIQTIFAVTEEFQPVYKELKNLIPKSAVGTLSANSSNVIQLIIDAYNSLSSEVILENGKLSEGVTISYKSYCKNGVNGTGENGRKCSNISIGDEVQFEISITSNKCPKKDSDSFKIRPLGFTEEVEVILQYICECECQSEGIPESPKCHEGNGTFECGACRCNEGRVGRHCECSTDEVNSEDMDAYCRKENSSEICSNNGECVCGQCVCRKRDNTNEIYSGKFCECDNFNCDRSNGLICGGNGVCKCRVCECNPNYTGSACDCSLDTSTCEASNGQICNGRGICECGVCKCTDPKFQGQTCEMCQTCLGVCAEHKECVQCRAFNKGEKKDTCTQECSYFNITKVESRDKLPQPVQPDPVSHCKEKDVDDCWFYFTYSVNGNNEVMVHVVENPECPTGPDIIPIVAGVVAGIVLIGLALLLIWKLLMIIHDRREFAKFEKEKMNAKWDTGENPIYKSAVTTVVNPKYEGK
Description: Jurkat E6.1 human cells (Sigma #88042803) were cultured in RPMI 1640 HEPES medium (Invitrogen #22400-089) supplemented with 10% serum (Fetal Bovine Serum, Invitrogen #16140-071), 1 mM sodium pyruvate (Invitrogen #11360-070), 2 mM L-glutamine (Invitrogen #25030-081) and Penicillin-Streptomycin (Invitrogen #15140-122) at 100 units of penicillin and 100 μg of streptomycin per ml. The cells were washed two times in DMEM medium (ATCC #30-2002) supplemented with 0.1% BSA, 10 mM HEPES pH 7 and 1 mM MnCl2. The cells were re-suspended in supplemented DMEM medium at a density of 4×10^6 cells/ml.
A Nunc MaxiSorp plate was coated with rh VCAM-1/CD106 Fc chimera (R&D #862-VC) at 400 ng per well in 50 ul per well in 1×PBS and incubated at 4° C. overnight. The solution was then removed by shaking, blocked with 250 ul per well PBS containing 1% BSA, and incubated at 37° C. for 1 hr. The solution was removed by shaking. Peptides were diluted by serial dilution in a final volume of 50 ul per well (2× concentration). To each well, 50 ul of cells (200,000 cells) were added and the plate was incubated at 37° C., 5% CO2 for 30-45 min to allow cell adhesion. The wells were washed manually three times (100 ul per wash) with supplemented DMEM. After the final wash, 100 ul/well of supplemented DMEM and 10 ul/well of MTT reagent (ATTC cat#30-1010K) were added. The plate was incubated at 37° C., 5% CO2 for 2-3 hrs until a purple precipitate was visible. 100 ul of Detergent Reagent (ATTC cat#30-1010K) was added to each well. The plate was covered from the light, wrapped in Parafilm to prevent evaporation, and left overnight at room temperature in the dark. The plate was shaken for 5 min and the absorbance at 570 nm was measured. To calculate the dose response, the absorbance value of control wells not containing cells was subtracted from each test well.

α4β7 = molecular target: T1, α4β7 (Mus musculus, UniProt P26011+Q00651); experiment: α4β7 Cell Adhesion Assay (Mouse), TK1 cells; format: cell-based
T1 construct: host or cells: TK1 mouse T cells
T1 sequence (Q00651 34-1039 limits assumed): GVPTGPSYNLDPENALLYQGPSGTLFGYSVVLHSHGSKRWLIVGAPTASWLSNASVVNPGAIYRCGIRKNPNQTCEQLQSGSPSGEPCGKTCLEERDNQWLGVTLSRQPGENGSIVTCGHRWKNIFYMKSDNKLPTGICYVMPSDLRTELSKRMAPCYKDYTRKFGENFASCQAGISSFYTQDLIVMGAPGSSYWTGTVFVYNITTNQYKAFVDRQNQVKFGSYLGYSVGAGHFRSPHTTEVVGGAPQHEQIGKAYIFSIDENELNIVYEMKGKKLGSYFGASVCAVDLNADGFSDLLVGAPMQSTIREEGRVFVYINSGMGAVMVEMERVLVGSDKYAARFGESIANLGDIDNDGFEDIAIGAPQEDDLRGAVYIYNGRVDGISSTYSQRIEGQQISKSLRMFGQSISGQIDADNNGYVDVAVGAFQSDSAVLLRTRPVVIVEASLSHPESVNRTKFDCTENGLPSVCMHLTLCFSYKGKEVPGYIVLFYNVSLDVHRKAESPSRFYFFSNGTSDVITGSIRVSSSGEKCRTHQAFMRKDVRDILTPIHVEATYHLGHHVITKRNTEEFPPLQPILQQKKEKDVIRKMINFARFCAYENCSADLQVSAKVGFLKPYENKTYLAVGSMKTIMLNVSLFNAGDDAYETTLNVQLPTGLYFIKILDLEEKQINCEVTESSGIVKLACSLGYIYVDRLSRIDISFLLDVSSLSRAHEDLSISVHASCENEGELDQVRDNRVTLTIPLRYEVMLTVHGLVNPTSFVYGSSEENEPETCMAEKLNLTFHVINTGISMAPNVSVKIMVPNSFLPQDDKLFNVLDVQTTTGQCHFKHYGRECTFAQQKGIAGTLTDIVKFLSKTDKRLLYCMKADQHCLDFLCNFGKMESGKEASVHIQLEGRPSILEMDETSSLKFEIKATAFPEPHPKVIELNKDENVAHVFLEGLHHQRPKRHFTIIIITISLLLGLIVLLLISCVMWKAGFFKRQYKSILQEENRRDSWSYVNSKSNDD
T1 sequence (P26011 20-806): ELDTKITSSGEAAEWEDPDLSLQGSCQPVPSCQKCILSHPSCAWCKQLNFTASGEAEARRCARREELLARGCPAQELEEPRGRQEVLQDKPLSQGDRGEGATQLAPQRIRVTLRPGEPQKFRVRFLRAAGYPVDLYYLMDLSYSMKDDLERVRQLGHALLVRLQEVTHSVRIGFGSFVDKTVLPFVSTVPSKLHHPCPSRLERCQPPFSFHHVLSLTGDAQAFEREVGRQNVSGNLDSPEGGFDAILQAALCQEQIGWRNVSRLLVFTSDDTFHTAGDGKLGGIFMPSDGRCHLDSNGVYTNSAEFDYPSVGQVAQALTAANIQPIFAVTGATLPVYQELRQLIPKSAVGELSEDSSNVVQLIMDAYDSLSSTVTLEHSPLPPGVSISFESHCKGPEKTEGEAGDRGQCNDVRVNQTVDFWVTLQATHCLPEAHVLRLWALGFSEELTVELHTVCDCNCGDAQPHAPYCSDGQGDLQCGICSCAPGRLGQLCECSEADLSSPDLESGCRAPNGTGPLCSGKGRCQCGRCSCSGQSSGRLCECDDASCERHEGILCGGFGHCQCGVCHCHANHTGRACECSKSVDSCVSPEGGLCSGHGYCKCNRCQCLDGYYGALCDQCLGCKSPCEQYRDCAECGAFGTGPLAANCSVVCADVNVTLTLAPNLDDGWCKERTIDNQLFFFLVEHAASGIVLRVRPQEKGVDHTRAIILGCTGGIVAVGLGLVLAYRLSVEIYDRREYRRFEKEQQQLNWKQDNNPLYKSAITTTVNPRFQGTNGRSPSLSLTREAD
Description: TK1 cells (ATCC # ATCC-CRL-2396) were cultured in RPMI 1640 with 2 mM L-glutamine adjusted to contain 1.5 g/L sodium bicarbonate, 4.5 g/L glucose, 10 mM HEPES, and 1.0 mM sodium pyruvate (ATCC#30-2001) and supplemented with 0.1 mM non-essential amino acids, (ATCC #30-2116) 0.05 mM 2-mercaptoethanol (Invitrogen #21985) and 10% serum (Fetal Bovine Serum, Invitrogen #16140-071), and Penicillin-Streptomycin (Invitrogen #15140-122) at 100 units of penicillin and 100 μg of streptomycin per ml. The cells were washed two times in DMEM medium (ATCC #30-2002) supplemented with 0.1% BSA, 10 mM HEPES pH 7 and 1 mM MnCl2. The cells were re-suspended in supplemented DMEM medium at a density of 4×10^6 cells/ml.
A Nunc MaxiSorp plate was coated with Recombinant human MAdCAM-1 Fc Chimera (R&D #6065-MC) at 200 ng per well in 100 μl per well in 1×PBS and incubated at 4° C. overnight. The solution was then removed by shaking, blocked with 250 ul per well PBS containing 1% BSA, and incubated at 37° C. for 1 hr. The solution was removed by shaking. DATK 32 (anti-mouse α4β7) and peptides were diluted by serial dilution in a final volume of 50 ul per well (2× concentration). To each well, 50 ul of cells (200,000 cells) are added and the plate is incubated at 37° C., 5% CO2 for 30-45 min to allow cell adhesion. The plate was manually washed three times with supplemented DMEM, 100 ul per wash. After the final wash, 100 ul/well of supplemented DMEM and […] of MTT reagent (ATTC cat#30-1010K) was added to each well. Wells were incubated at 37° C. with 5% CO2 for 2-3 hrs until purple precipitate was visible. 100 μl of Detergent Reagent (ATTC cat#30-1010K) was added to each well. The plate was then wrapped with Para film to prevent evaporation, and left overnight at room temperature in the dark. The plate was shaken for 5 min and the absorbance at 570 nm was measured. To calculate the dose response, the absorbance value of control wells not containing cells was subtracted from each test well.

[1] = Table 4-B, read-out: Cell Adhesion α4β1 IC50

| SMILES | IC50 (α4β1; [1]) [µM] | further results |
| --- | --- | --- |
| CC(=O)N[C@@H]1C(=O)N(C)[C@@H](CCCNC(=N)N)C(=O)N[C@@H](CO)C(=O)N[C@@H](CC(=O)O)C(=O)N[C@@H]([C@@H](C)O)C(=O)N[C@@H](CC(C)C)C(=O)N[C@H](C(=O)N[C@@H](Cc2ccc(C(C)(C)C)cc2)C(=O)N[C@@H](CCC(=O)O)CC(=O)N[C@H](CCCCNC(=O)COCC(=O)NCCCC[C@@H](NC(=O)C[C@H](CCC(=O)O)NC(=O)[C@H](Cc2ccc(C(C)(C)C)cc2)NC(=O)[C@H]2NC(=O)[C@H](CC(C)C)NC(=O)[C@H]([C@@H](C)O)NC(=O)[C@H](CC(=O)O)NC(=O)[C@H](CO)NC(=O)[C@H](CCCNC(=N)N)N(C)C(=O)[C@@H](NC(C)=O)C(C)(C)SSC2(C)C)C(N)=O)C(N)=O)C(C)(C)SSC1(C)C [compound 132] (I: Ac-[Pen][NMeR]SDTL[Pen][Phe(4-tBu)][β3hE][dK]-NH2 / II: Ac-[Pen][NMeR]SDTL[Pen][Phe(4-tBu)][β3hE][dK]-NH2; disulfide I:1-I:7, II:1-II:7; linker I:10-II:10 via Diglycolyl) |  | IC50 (α4β1; Table 3-B, Selectivity (α4β1), range classes, read-out: α4β1 cell IC50): > 100 µM; IC50 (α4β7; Table 3-B, Potency (α4β7), range classes, read-out: α4β7 cell(MU) IC50): < 0.01 µM |
| CC(=O)N[C@H]1CSSC[C@@H](C(=O)NCC(=O)N[C@@H](CCC(=O)O)C(=O)N[C@@H](CCCCNC(=O)CCOCCOCCOCCOCCOCCOCCOCCOCCOCCOCCOCCOCCOCCOCCOCCOCCOCCOCCOCCOCCOCCOCCOCCOCCOCCC(=O)NCCCC[C@H](NC(=O)[C@H](CCC(=O)O)NC(=O)CNC(=O)[C@@H]2CSSC[C@H](NC(C)=O)C(=O)N[C@@H](CCCNC(=N)N)C(=O)N[C@@H](CO)C(=O)N[C@@H](CC(=O)O)C(=O)N[C@@H]([C@@H](C)O)C(=O)N[C@@H](CC(C)C)C(=O)N2)C(N)=O)C(N)=O)NC(=O)[C@H](CC(C)C)NC(=O)[C@H]([C@@H](C)O)NC(=O)[C@H](CC(=O)O)NC(=O)[C@H](CO)NC(=O)[C@H](CCCNC(=N)N)NC1=O [compound 197, (Ac-C-R-S-D-T-L-C-G-E-K-NH2)2-PEG25] (I: Ac-CRSDTLCGEK-NH2 / II: Ac-CRSDTLCGEK-NH2; disulfide I:1-I:7, II:1-II:7; linker I:10-II:10 via X2) | > 100 |  |
| CC(=O)N[C@@H]1C(=O)N(C)[C@@H](CCCNC(=N)N)C(=O)N[C@@H](CO)C(=O)N[C@@H](CC(=O)O)C(=O)N[C@@H]([C@@H](C)O)C(=O)N[C@@H](CC(C)C)C(=O)N[C@H](C(=O)N[C@@H](Cc2ccc3ccccc3c2)C(=O)N[C@@H](CCC(=O)O)C(=O)N[C@H](CCCCNC(=O)COCC(=O)NCCCC[C@@H](NC(=O)[C@H](CCC(=O)O)NC(=O)[C@H](Cc2ccc3ccccc3c2)NC(=O)[C@H]2NC(=O)[C@H](CC(C)C)NC(=O)[C@H]([C@@H](C)O)NC(=O)[C@H](CC(=O)O)NC(=O)[C@H](CO)NC(=O)[C@H](CCCNC(=N)N)N(C)C(=O)[C@@H](NC(C)=O)C(C)(C)SSC2(C)C)C(N)=O)C(N)=O)C(C)(C)SSC1(C)C [compound 212, (Ac-Pen-N-Me-R-S-D-T-L-Pen-2-Nal-E-k-NH2)2-DIG] (I: Ac-[Pen][NMeR]SDTL[Pen][2Nal]E[dK]-NH2 / II: Ac-[Pen][NMeR]SDTL[Pen][2Nal]E[dK]-NH2; disulfide I:1-I:7, II:1-II:7 (inferred); linker I:10-II:10 via Diglycolyl (inferred)) | > 100 |  |
| CC(=O)N[C@H]1CSSC(C)(C)[C@@H](C(=O)N[C@H](CCCCN)C(N)=O)NC(=O)[C@H](CC(C)C)NC(=O)[C@H]([C@@H](C)O)NC(=O)[C@H](CC(=O)O)NC(=O)[C@H](CO)NC(=O)[C@H](CCCNC(=N)N)N(C)C1=O [compound 202, Ac-C-N-Me-R-S-D-T-L-Pen-k-NH2] (Ac-C[NMeR]SDTL[Pen][dK]-NH2; disulfide 1-7) | > 100 |  |
| CC(=O)N[C@H]1CSSC[C@@H](C(=O)NCC(=O)N[C@@H](CCC(=O)O)C(=O)N[C@@H](CCCCN)C(N)=O)NC(=O)[C@H](CC(C)C)NC(=O)[C@H]([C@@H](C)O)NC(=O)[C@H](CC(=O)O)NC(=O)[C@H](CO)NC(=O)[C@H](CCCNC(=N)N)NC1=O [compound 196, Ac-C-R-S-D-T-L-C-G-E-K-NH2] (Ac-CRSDTLCGEK-NH2; disulfide 1-7) | > 100 |  |
| CC(=O)N[C@@H]1C(=O)N(C)[C@@H](CCCNC(=N)N)C(=O)N[C@@H](CO)C(=O)N[C@@H](CC(=O)O)C(=O)N[C@@H]([C@@H](C)O)C(=O)N[C@@H](CC(C)C)C(=O)N[C@H](C(=O)N[C@@H](Cc2ccc3ccccc3c2)C(=O)N[C@@H](CCC(=O)O)C(=O)N[C@H](CCCCN)C(N)=O)C(C)(C)SSC1(C)C [compound 210, Ac-Pen-N-Me-R-S-D-T-L-Pen-2-Nal-E-k-NH2] (Ac-[Pen][NMeR]SDTL[Pen][2Nal]E[dK]-NH2; disulfide 1-7) | > 100 |  |
| CC(=O)N[C@H]1CSSC(C)(C)[C@@H](C(=O)N[C@@H](Cc2c[nH]c3ccccc23)C(=O)N[C@H](CCCCNC(=O)COCC(=O)NCCCC[C@@H](NC(=O)[C@H](Cc2c[nH]c3ccccc23)NC(=O)[C@H]2NC(=O)[C@H](CC(C)C)NC(=O)[C@H]([C@@H](C)O)NC(=O)[C@H](CC(=O)O)NC(=O)[C@H](CO)NC(=O)[C@H](CCCNC(=N)N)N(C)C(=O)[C@@H](NC(C)=O)CSSC2(C)C)C(N)=O)C(N)=O)NC(=O)[C@H](CC(C)C)NC(=O)[C@H]([C@@H](C)O)NC(=O)[C@H](CC(=O)O)NC(=O)[C@H](CO)NC(=O)[C@H](CCCNC(=N)N)N(C)C1=O [compound 204, (Ac-C-N-Me-R-S-D-T-L-Pen-W-k-NH2)2-DIG] (I: Ac-C[NMeR]SDTL[Pen]W[dK]-NH2 / II: Ac-C[NMeR]SDTL[Pen]W[dK]-NH2; disulfide I:1-I:7, II:1-II:7 (inferred); linker I:9-II:9 via Diglycolyl (inferred)) | > 100 |  |
| CC(=O)N[C@H]1CSSC[C@@H](C(=O)NCC(=O)N[C@@H](CCC(=O)O)C(N)=O)NC(=O)[C@H](CC(C)C)NC(=O)[C@H]([C@@H](C)O)NC(=O)[C@H](CC(=O)O)NC(=O)[C@H](CO)NC(=O)[C@H](CCCNC(=N)N)N(C)C1=O [compound 198, Ac-C-N-Me-R-S-D-T-L-C-G-E-NH2] (Ac-C[NMeR]SDTLCGE-NH2; disulfide 1-7) | > 100 |  |
| CC(=O)N[C@@H]1C(=O)N(C)[C@@H](CCCNC(=N)N)C(=O)N[C@@H](CO)C(=O)N[C@@H](CC(=O)O)C(=O)N[C@@H]([C@@H](C)O)C(=O)N[C@@H](CC(C)C)C(=O)N[C@H](C(=O)N[C@@H](Cc2c[nH]c3ccccc23)C(=O)N[C@@H](CCC(=O)O)C(=O)N(C)[C@H](CCCCNC(=O)COCC(=O)NCCCC[C@H](C(N)=O)N(C)C(=O)[C@H](CCC(=O)O)NC(=O)[C@H](Cc2c[nH]c3ccccc23)NC(=O)[C@H]2NC(=O)[C@H](CC(C)C)NC(=O)[C@H]([C@@H](C)O)NC(=O)[C@H](CC(=O)O)NC(=O)[C@H](CO)NC(=O)[C@H](CCCNC(=N)N)N(C)C(=O)[C@@H](NC(C)=O)C(C)(C)SSC2(C)C)C(N)=O)C(C)(C)SSC1(C)C [compound 214, [Ac-Pen-(N-Me-Arg)-Ser-Asp-Thr-Leu-Pen-Trp-Glu-(N-Me-D-Lys)-NH2]2-DIG] (I: Ac-[Pen][NMeR]SDTL[Pen]WE[dNMeK]-NH2 / II: Ac-[Pen][NMeR]SDTL[Pen]WE[dNMeK]-NH2; disulfide I:1-I:7, II:1-II:7 (inferred); linker I:10-II:10 via Diglycolyl (inferred)) |  | IC50 (α4β7; Table 4-B, read-out: Cell Adhesion α4β7 Mouse IC50): 0.0011 µM |
